Laboratory results as given in patent publication US20180002295A1, “Compositions and Methods for Treating Anxiety and Compulsive Behavior” (University of Iowa Research Foundation, priority 2015, published 2018).
Entries after “also recorded” stand apart in the source; their conditions may differ.

Tests used:
SAPAP3-deficient mice [1] = assay: Spray-induced grooming assay (baseline and spray-induced grooming) in SAPAP3-deficient mice; assay type: in vivo; conditions: compared with wild type
SAPAP3-deficient mice [2] = conditions: reference 4; cited from earlier work
[3] = intracerebroventricular infusion into left lateral ventricle for 7 days by osmotic minipump
[4] = intraperitoneal, 10 mg/kg/d, 10 mg/kg/day

Row | Compound | basal (baseline) grooming (SAPAP3-deficient mice [1]; [3]) | spray-induced grooming (SAPAP3-deficient mice [1]; [3]) | compulsive grooming leading to acquisition of facial lesions (SAPAP3-deficient mice [2]) | basal (baseline) grooming (SAPAP3-deficient mice [1]; [4]) | spray-induced grooming (SAPAP3-deficient mice [1]; [4])
1 | CCOc1ccc2nc(N/C(=N/C(=O)CC)NC(=O)CC)nc(C)c2c1 [P5C6] | normalized | normalized |  |  | 
2 | CNCCC(Oc1ccc(C(F)(F)F)cc1)c1ccccc1 (centres unmarked) [fluoxetine] |  |  | ameliorated | restored to wild type levels; also recorded: normalized | restored to wild type levels; also recorded: normalized
